The text below walks through data of patent US9492471B2, “Methods of treating a disease or disorder associated with Bruton'S Tyrosine Kinase” (Celgene Avilomics Research, Inc., priority 2013, dated 2016).

Holding throughout (experiment): HotSpot kinase profiling
What all share (type): biochemical

Test [1] concerns the target T1, DLK/MAP3K12 (Homo sapiens, UniProt Q12852).
T1 construct: purchased Reaction Biology Corp
T1 sequence (Q12852 1-859): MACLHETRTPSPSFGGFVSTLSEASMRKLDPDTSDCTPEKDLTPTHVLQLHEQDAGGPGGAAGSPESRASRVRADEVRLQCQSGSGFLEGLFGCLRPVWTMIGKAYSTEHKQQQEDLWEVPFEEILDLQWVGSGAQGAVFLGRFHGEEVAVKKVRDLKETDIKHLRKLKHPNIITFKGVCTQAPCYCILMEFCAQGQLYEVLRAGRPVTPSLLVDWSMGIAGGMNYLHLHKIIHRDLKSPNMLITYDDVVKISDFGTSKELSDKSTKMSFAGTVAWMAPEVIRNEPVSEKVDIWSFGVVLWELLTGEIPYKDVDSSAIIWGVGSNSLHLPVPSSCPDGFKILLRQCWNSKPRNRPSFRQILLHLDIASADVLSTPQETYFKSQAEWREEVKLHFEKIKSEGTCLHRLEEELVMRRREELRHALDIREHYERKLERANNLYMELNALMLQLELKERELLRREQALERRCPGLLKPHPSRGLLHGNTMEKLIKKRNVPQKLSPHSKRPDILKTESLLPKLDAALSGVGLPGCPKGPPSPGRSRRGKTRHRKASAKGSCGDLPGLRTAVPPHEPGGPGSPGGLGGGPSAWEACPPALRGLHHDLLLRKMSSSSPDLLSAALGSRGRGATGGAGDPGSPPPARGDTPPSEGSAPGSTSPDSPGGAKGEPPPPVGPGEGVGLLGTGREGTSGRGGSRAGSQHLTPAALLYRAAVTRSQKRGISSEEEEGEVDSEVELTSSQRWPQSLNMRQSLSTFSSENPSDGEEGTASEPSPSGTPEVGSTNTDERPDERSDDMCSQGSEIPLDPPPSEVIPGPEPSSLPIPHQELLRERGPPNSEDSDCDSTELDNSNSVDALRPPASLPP
Summed up: (§1)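 Percent inhibition, averaged when run more than once and referenced to a DMSO negative control, came from a radioactive filter-binding readout on P81 paper. Reactions of kinase with freshly made substrate and cofactors ran for 2 h at room temperature.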

The target of test [2] is T2, RIPK5 (Homo sapiens, UniProt Q6XUX3).
T2 construct: purchased Reaction Biology Corp
T2 sequence (Q6XUX3 1-929): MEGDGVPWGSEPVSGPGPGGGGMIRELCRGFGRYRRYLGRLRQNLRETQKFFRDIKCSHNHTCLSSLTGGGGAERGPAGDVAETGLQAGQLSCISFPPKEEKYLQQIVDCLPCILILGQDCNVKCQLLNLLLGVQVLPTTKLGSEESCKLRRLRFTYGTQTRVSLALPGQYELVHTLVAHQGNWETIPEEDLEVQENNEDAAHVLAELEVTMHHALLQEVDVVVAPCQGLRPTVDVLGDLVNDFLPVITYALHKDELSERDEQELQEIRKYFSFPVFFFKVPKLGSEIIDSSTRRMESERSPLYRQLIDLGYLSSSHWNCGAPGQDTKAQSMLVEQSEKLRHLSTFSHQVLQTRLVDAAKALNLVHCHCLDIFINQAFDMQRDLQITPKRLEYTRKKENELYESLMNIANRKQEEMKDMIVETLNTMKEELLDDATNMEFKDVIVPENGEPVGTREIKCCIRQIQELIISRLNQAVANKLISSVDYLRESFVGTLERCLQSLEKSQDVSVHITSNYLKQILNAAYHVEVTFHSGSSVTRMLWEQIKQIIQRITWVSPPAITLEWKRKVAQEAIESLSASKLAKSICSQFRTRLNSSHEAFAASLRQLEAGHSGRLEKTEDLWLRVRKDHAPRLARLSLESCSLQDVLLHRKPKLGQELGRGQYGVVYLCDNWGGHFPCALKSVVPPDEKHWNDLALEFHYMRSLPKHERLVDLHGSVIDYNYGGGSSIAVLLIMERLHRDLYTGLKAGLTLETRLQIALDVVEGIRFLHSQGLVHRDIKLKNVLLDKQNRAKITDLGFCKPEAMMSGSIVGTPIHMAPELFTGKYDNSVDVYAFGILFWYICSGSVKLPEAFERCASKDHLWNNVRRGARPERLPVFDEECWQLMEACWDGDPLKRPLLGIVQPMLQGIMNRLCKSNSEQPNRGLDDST
The procedure, abridged:
as §1

Test [3] concerns the target T3, YES/YES1 (Homo sapiens, UniProt P07947).
T3 construct: purchased Reaction Biology Corp
Summed up:
as §1

The target of test [4] is T4, CTK/MATK (Homo sapiens, UniProt P42679).
T4 construct: purchased Reaction Biology Corp
T4 sequence (P42679 1-507): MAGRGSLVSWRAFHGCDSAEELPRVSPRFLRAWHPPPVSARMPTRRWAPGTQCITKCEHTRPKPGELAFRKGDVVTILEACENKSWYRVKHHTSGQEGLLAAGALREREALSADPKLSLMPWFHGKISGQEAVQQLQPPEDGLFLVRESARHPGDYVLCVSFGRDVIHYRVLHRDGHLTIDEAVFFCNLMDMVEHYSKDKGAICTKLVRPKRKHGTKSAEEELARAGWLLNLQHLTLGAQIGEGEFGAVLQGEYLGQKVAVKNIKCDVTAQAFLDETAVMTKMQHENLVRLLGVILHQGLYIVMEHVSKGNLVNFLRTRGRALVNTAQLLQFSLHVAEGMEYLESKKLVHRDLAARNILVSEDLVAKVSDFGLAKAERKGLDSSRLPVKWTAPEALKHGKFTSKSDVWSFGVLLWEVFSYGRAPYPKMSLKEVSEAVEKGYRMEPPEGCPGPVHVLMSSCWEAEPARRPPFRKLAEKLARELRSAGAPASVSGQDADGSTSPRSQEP
The procedure, abridged: as §1

The mark [5] stands for this setting: read-out: % Enzyme Activity (relative to DMSO controls) Run 1.
Where [6] appears, read: read-out: % Enzyme Activity (relative to DMSO controls) Run 2.

Usually inhibition stands for the change of the read-out against control, counted positive when it falls.

SMILES strings stand for the structures. Where two headings read alike, the source gives them in different places.

T3 sequence (P07947 whole entry): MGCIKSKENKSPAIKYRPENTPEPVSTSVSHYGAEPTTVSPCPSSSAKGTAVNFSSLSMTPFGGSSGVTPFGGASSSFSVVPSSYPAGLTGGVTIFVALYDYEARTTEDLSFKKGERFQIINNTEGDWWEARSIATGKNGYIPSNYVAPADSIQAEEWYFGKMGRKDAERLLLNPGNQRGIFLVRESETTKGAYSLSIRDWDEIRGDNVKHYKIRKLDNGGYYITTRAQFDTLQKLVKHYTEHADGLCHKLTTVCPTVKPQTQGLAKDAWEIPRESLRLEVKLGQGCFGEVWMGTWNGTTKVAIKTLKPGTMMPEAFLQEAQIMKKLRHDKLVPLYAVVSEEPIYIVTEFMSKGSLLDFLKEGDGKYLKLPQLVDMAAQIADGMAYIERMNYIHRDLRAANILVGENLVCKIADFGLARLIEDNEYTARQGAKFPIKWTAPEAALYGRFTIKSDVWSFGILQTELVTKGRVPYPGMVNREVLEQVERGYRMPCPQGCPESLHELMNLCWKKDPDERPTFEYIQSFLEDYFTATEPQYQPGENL

Consider `C=CC(=O)Nc1cccc(Nc2nc(Nc3ccc(OCCOC)c(F)c3)ncc2F)c1` [Compound 2], for which the inhibition at 3 µM was 22.8% in test [1], 2.32% in test [2], 81.5% in test [3] and -3.03% in test [4]. Further, the remaining activity at 3 µM in test [1] (setting [5]) was 74.2%; in test [1] (setting [6]) it was 80.2%; in test [2] (setting [5]), 96.1%; in test [2] (setting [6]) it was 99.2%; in test [3] (setting [5]), 18.7%; in test [3] (setting [6]) it was 18.3%. The remaining activity at 3 µM in test [4] (setting [5]) is 102%; in test [4] (setting [6]), 104%.
